The values below come from ChEMBL document CHEMBL5154864, “Design, synthesis and biological evaluation of novel nitric oxide donors with antioxidative activity” (Eur J Med Chem, 2022).

Activity calls are given as the source filed them. The rule behind the calls is not given here.

In series [1] the test system is HUVEC. Put plainly: Cytotoxicity against HUVEC cells assessed as reduction in cell viability at 5 uM in absence of TBHP by CCK8 assay. The following applies: human. The class given is toxicity, cell-based. (In general: Tetrazolium dyes change colour on reduction, which living cells bring about.)
The subject of series [2] is HUVEC. Put plainly: Effect on intracellular NO production in HUVEC cells assessed as increase in NO level at 5 uM incubated for 24 hrs by inverted microscopic analysis. The following applies: Homo sapiens. The class given is functional, cell-based.
The subject of series [3] is HUVEC. Put plainly: Cytoprotective activity against TBHP induced oxidative stress in human HUVEC cells assessed as increase in cell viability at 5 uM by CCK8 assay. The format is functional, cell-based.
Another series deals with Thoracic aorta. Put plainly: Vasodilation activity in C57BL/6 mouse thoracic aorta assessed as relaxation of phenylephrine-induced contractions at 5 to 50 uM. The class given is functional, tissue-based. The following applies: dose 5-50 µM.
Series [4] deals with HUVEC. Put plainly: Induction of oxidative stress in HUVEC cells assessed as increase in intracellular ROS level at 5 uM incubated for 24 hrs by DCHF staining based inverted microscopic analysis. The class given is functional, cell-based. Particulars: Homo sapiens.
Series [5] relates to Mus musculus. Put plainly: Reversal of Ang II infusion-induced smooth muscle dysfunction in C57BL/6 mouse model assessed as relaxation of SNP-stimulated vasodilation at 100 mg/kg/day, ip measured after 4 weeks. The format is functional, organism-based.
The test system of series [6] is Mus musculus. Put plainly: Reversal of Ang II infusion-induced endothelial dysfunction in C57BL/6 mouse model assessed as relaxation of ACh-stimulated vasodilation at 100 mg/kg/day, ip measured after 4 weeks. The format is functional, organism-based.
In series [7] the test system is Mus musculus. Put plainly: Antihypertensive activity against C57BL/6 mouse model of Ang II-induced hypertension assessed as reduction in vascular ROS level at 100 mg/kg/day, ip measured after 4 weeks. The class given is functional, organism-based.
The test system of series [8] is Mus musculus. Put plainly: Antihypertensive activity against C57BL/6 mouse model of Ang II-induced hypertension assessed as reduction in thoracic arterial wall thickness at 100 mg/kg/day, ip measured after 4 weeks. The class given is functional, organism-based.
Series [9] relates to Mus musculus. Put plainly: Antihypertensive activity against C57BL/6 mouse model of Ang II-induced hypertension assessed as reduction in diastolic blood pressure at 100 mg/kg/day, ip measured after 4 weeks. The format is functional, organism-based. Set-up: scale not given: the % may be the effect or the level left.
The subject of series [10] is Mus musculus. Put plainly: Antihypertensive activity against C57BL/6 mouse model of Ang II-induced hypertension assessed as reduction in systolic blood pressure at 100 mg/kg/day, ip measured after 4 weeks. The class given is functional, organism-based. Details: scale not given: the % may be the effect or the level left.

As to `CC1(C)N(O)C(c2ccc(C(=O)O)cc2)=[N+]([O-])C1(C)C`, the Activity result with HUVEC [1] is on record as “Non-Toxic”. The outcome in the series with HUVEC [2] was Active.
As for `CC1(C)CC(O)CC(C)(C)N1[O]`, the result in the series on HUVEC [2] and in the series on HUVEC [3] was Active.
As to `O=[N+]([O-])O[C@@H]1CO[C@H]2[C@@H]1OC[C@@H]2O`, the outcome in the series with Thoracic aorta, with HUVEC [2] and in the series with HUVEC [4] was Active.
On to “2-(2'-bromo-5'-hydroxylphenyl)-4,4,5,5-tetramethylimidazoline-1-oxyl-3-oxide”, for which the outcome in the series on HUVEC [2] was Active.
Same read-out and setting: under “2-(2'-bromo-6'-hydroxylphenyl)-4,4,5,5-tetramethylimidazoline-1-oxyl-3-oxide” stands “Active”; under “2-(2'-hydroxylphenyl)-4,4,5,5-tetramethyl-imidazoline-1-oxyl-3-oxide”, “Active”; under “2-(2-hydroxynaphthalen-1-yl)-4,4,5,5-tetramethylimidazoline-1-oxyl-3-oxide”, “Active”.
The same measure, in the same setting: the same measure for “2-(3'-bromo-4'-hydroxylphenyl)-4,4,5,5-tetramethylimidazoline-1-oxyl-3-oxide”: “Active”.
In the case of “2-(4-hydroxy-3-methoxyphenyl)-4,4,5,5-tetramethylimidazoline-1-oxyl-3-oxide”, the result with HUVEC [2] and in the series with HUVEC [3] was Active.
“(3S,6R)-6-(nitrooxy)hexahydrofuro[3,2-b]furan-3-yl 2-(2-(4,5-dihydro-4,4,5,5-tetramethyl-3-oxido-1H-imidazole-3-ium-1-oxyl-2-yl)phenoxy)acetate”: the result in the series on HUVEC [2] and with HUVEC [3] was Active.
Take “(3S,6R)-6-(nitrooxy)hexahydrofuro[3,2-b]furan-3-yl 2-(2-bromo-4-(4,5-dihydro-4,4,5,5-tetramethyl-3-oxido-1H-imidazole-3-ium-1-oxyl-2-yl)phenoxy)acetate”: the outcome in the series on HUVEC [2] and with HUVEC [3] was Active.
In the case of “(3S,6R)-6-(nitrooxy)hexahydrofuro[3,2-b]furan-3-yl 2-(4-bromo-3-(4,5-dihydro-4,4,5,5-tetramethyl-3-oxido-1H-imidazole-3-ium-1-oxyl-2-yl)phenoxy)acetate”, the outcome with Thoracic aorta, with HUVEC [2] and in the series with HUVEC [3] was Active.
As for “(3S,6R)-6-(nitrooxy)hexahydrofuro[3,2-b]furan-3-yl 3-(4,5-dihydro-4,4,5,5-tetramethyl-3-oxido-1H-imidazole-3-ium-1-oxyl-2-yl)benzoate”, the outcome with HUVEC [2] and in the series on HUVEC [4] was Active.
With “(3S,6R)-6-(nitrooxy)hexahydrofuro[3,2-b]furan-3-yl 4-(4,5-dihydro-4,4,5,5-tetramethyl-3-oxido-1H-imidazole-3-ium-1-oxyl-2-yl)benzoate”, the result with HUVEC [2] and in the series on HUVEC [4] was Active.
For the compound “(3S,6R)-6-(nitrooxy)hexahydrofuro[3,2-b]furan-3-yl (4-(4,5-dihydro-4,4,5,5-tetramethyl-3-oxido-1H-imidazole-3-ium-1-oxyl-2-yl)naphthalen-2-yl)benzoyl)-D-prolinate”, the result with Thoracic aorta, in the series with Mus musculus [5], with Mus musculus [6], with Mus musculus [7], in the series with Mus musculus [8] and in the series on HUVEC [2] was Active. The outcome in the series with HUVEC [3] was Active. The Activity came to 14.3% in the series on Mus musculus [9] and 14.8% in the series with Mus musculus [10].
For “(3S,6R)-6-(nitrooxy)hexahydrofuro[3,2-b]furan-3-yl (4-(4,5-dihydro-4,4,5,5-tetramethyl-3-oxido-1H-imidazole-3-ium-1-oxyl-2-yl)naphthalen-2-yl)benzoyl)-L-prolinate”, the outcome with HUVEC [2], in the series with HUVEC [3] and in the series on HUVEC [4] was Active.
